Source: patent US6472391B2, “Nitrogen-containing heterocyclic compounds” (Millennium Pharmaceuticals, Inc., priority 1996, dated 2002)

Compound	melting point [°C]
COc1cc2ncnc(N3CCN(C(=S)NCc4ccncc4)CC3)c2cc1OC [Compound 270, 4-(6,7-Dimethoxy-4-quinazolinyl)-N-(4-picolyl)-1-piperazinethiocarboxamide]	236 to 239
COc1cc2ncnc(N3CCN(C(=O)Nc4ccc(C)nc4)CC3)c2cc1OC [Compound 271, 4-(6,7-Dimethoxy-4-quinazolinyl)-N-(2-methyl-5-pyridyl)-1-piperazinecarboxamide]	240 to 241
COc1cc2ncnc(N3CCN(C(=O)Nc4ccc(Cl)nc4)CC3)c2cc1OC [Compound 272, N-(2-Chloro-5-pyridyl)-4-(6,7-dimethoxy-4-quinazolinyl)-1-piperazinecarboxamide]	238 to 240
COc1cc2ncnc(N3CCN(C(=O)Nc4ccc(C#N)nc4)CC3)c2cc1OC [Compound 273, N-(2-Cyano-5-pyridyl)-4-(6,7-dimethoxy-4-quinazolinyl)-1-piperazinecarboxamide]	275 to 277
COc1cc2ncnc(N3CCN(C(=S)NCc4ncc(C(F)(F)F)cc4Cl)CC3)c2cc1OC [Compound 276, N-(3-Chloro-5-trifluoromethyl-2-picolyl)-4-(6,7-dimethoxy-4-quinazolinyl)-1-piperazinethiocarboxamide]	182 to 183
COc1cc2ncnc(N3CCN(C(=S)Nc4cc(O)nc(O)n4)CC3)c2cc1OC [Compound 277, N-(2,6-Dihydroxy-4-pyrimidinyl)-4-(6,7-dimethoxy-4-quinazolinyl)-1-piperazinethiocarboxamide]	283 to 285
COc1cc2ncnc(N3CCN(C(=O)NCc4cnc(C)cn4)CC3)c2cc1OC [Compound 278, 4-(6,7-Dimethoxy-4-quinazolinyl)-N-(5-methyl-2-pyrazinylmethyl)-1-piperazinecarboxamide]	202 to 204
COc1cc2ncnc(N3CCN(C(=S)NC4CCOC4=O)CC3)c2cc1OC (centres unmarked) [Compound 279, 4-(6,7-Dimethoxy-4-quinazolinyl)-N-(2,3,4,5-tetrahydro-2-oxo-3-furyl)-1-piperazinethiocarboxamide]	147 to 148
COc1cc2ncnc(N3CCN(C(=O)Nc4ccc(-n5cccc5)cc4)CC3)c2cc1OC [Compound 280, 4-(6,7-Dimethoxy-4-quinazolinyl)-N-[4-(1-pyrrolyl)phenyl]-1-piperazinecarboxamide]	224 to 226
COc1cc2ncnc(N3CCN(C(=S)Nc4ccc(Cc5ccncc5)cc4)CC3)c2cc1OC [Compound 282, 4-(6,7-Dimethoxy-4-quinazolinyl)-N-[4-(4-picolyl)phenyl]-1-piperazinethiocarboxamide]	198 to 200
S=C(NCc1ccccc1)N1CCN(c2ncnc3ccccc23)CC1 [Compound 285, N-Benzyl-4-(4-quinazolinyl)-1-piperazinethiocarboxamide]	68 to 70
S=C(NCc1cccnc1)N1CCN(c2ncnc3ccccc23)CC1 [Compound 286, N-(3-Picolyl)-4-(4-quinazolinyl)-1-piperazinethiocarboxamide]	193 to 194
Cc1cccc2ncnc(N3CCN(C(=O)Nc4ccc(Oc5ccccc5)cc4)CC3)c12 [Compound 287, 4-(5-Methyl-4-quinazolinyl)-N-(4-phenoxyphenyl)-1-piperazinecarboxamide]	187 to 188
Cc1cccc2ncnc(N3CCN(C(=S)NCc4ccccc4)CC3)c12 [Compound 288, N-Benzyl-4-(5-methyl-4-quinazolinyl)-1-piperazinethiocarboxamide]	165 to 167
Cc1ccc2ncnc(N3CCN(C(=O)Nc4ccc([N+](=O)[O-])cc4)CC3)c2c1 [Compound 293, 4-(6-Methyl-4-quinazolinyl)-N-(4-nitrophenyl)-1-piperazinecarboxamide]	126 to 129
Cc1ccc2ncnc(N3CCN(C(=S)NCc4cccnc4)CC3)c2c1 [Compound 295, 4-(6-Methyl-4-quinazolinyl)-N-(3-picolyl)-1-piperazinethiocarboxamide]	128 to 129
CC(C)c1ccc(NC(=O)N2CCN(c3ncnc4ccc(F)cc34)CC2)cc1 [Compound 296, 4-(6-Fluoro-4-quinazolinyl)-N-(4-isopropylphenyl)-1-piperazinecarboxamide]	139 to 140
CC(=O)c1ccc(NC(=O)N2CCN(c3ncnc4ccc(F)cc34)CC2)cc1 [Compound 298, N-(4-Acetylphenyl)-4-(6-fluoro-4-quinazolinyl)-1-piperazinecarboxamide]	184 to 185
Fc1ccc2ncnc(N3CCN(C(=S)NCc4cccnc4)CC3)c2c1 [Compound 299, 4-(6-Fluoro-4-quinazolinyl)-N-(3-picolyl)-1-piperazinethiocarboxamide]	170 to 172
CC(C)c1ccc(NC(=O)N2CCN(c3ncnc4ccc(Cl)cc34)CC2)cc1 [Compound 300, 4-(6-Chloro-4-quinazolinyl)-N-(4-isopropylphenyl)-1-piperazinecarboxamide]	192 to 193
O=C(Nc1ccc(Oc2ccccc2)cc1)N1CCN(c2ncnc3ccc(Cl)cc23)CC1 [Compound 301, 4-(6-Chloro-4-quinazolinyl)-N-(4-phenoxyphenyl)-1-piperazinecarboxamide]	116 to 120

Compound	melting point [°C]
CC(=O)c1ccc(NC(=O)N2CCN(c3ncnc4ccc(Cl)cc34)CC2)cc1 [Compound 302, N-(4-Acetylphenyl)-4-(6-chloro-4-quinazolinyl)-1-piperazinecarboxamide]	207 to 208
O=C(Nc1ccc(Oc2ccccc2)cc1)N1CCN(c2ncnc3ccc(Br)cc23)CC1 [Compound 303, 4-(6-Bromo-4-quinazolinyl)-N-(4-phenoxyphenyl)-1-piperazinecarboxamide]	169 to 170
CC(C)c1ccc(NC(=O)N2CCN(c3ncnc4ccc(I)cc34)CC2)cc1 [Compound 304, 4-(6-Iodo-4-quinazolinyl)-N-(4-isopropylphenyl)-1-piperazinecarboxamide]	211 to 212
O=C(Nc1ccc(Oc2ccccc2)cc1)N1CCN(c2ncnc3ccc(I)cc23)CC1 [Compound 305, 4-(6-Iodo-4-quinazolinyl)-N-(4-phenoxyphenyl)-1-piperazinecarboxamide]	184 to 185
COc1ccc2ncnc(N3CCN(C(=O)Nc4ccc(Oc5ccccc5)cc4)CC3)c2c1 [Compound 307, 4-(6-Methoxy-4-quinazolinyl)-N-(4-phenoxyphenyl)-1-piperazinecarboxamide]	139 to 140
COc1ccc2ncnc(N3CCN(C(=O)Nc4ccc([N+](=O)[O-])cc4)CC3)c2c1 [Compound 308, 4-(6-Methoxy-4-quinazolinyl)-N-(4-nitrophenyl)-1-piperazinecarboxamide]	228 to 229
COc1ccc2ncnc(N3CCN(C(=S)NCc4ccccc4)CC3)c2c1 [Compound 309, N-Benzyl-4-(6-methoxy-4-quinazolinyl)-1-piperazinethiocarboxamide]	68 to 70
COc1ccc2ncnc(N3CCN(C(=S)NCc4cccnc4)CC3)c2c1 [Compound 310, 4-(6-Methoxy-4-quinazolinyl)-N-(3-picolyl)-1-piperazinethiocarboxamide]	139 to 140
O=C(Nc1ccc(Oc2ccccc2)cc1)N1CCN(c2ncnc3ccc([N+](=O)[O-])cc23)CC1 [Compound 311, 4-(6-Nitro-4-quinazolinyl)-N-(4-phenoxyphenyl)-1-piperazinecarboxamide]	170 to 171
Cc1ccc2c(N3CCN(C(=O)Nc4ccc([N+](=O)[O-])cc4)CC3)ncnc2c1 [Compound 313, 4-(7-Methyl-4-quinazolinyl)-N-(4-nitrophenyl)-1-piperazinecarboxamide]	251 to 254
Cc1ccc2c(N3CCN(C(=S)NCc4ccccc4)CC3)ncnc2c1 [Compound 314, N-Benzyl-4-(7-methyl-4-quinazolinyl)-1-piperazinethiocarboxamide]	177 to 178
S=C(NCc1ccccc1)N1CCN(c2ncnc3cc(Cl)ccc23)CC1 [Compound 317, N-Benzyl-4-(7-chloro-4-quinazolinyl)-1-piperazinethiocarboxamide]	70 to 71
CC(C)Oc1ccc2c(N3CCN(C(=O)Nc4ccc(Oc5ccccc5)cc4)CC3)ncnc2c1 [Compound 318, 4-(7-Isopropoxy-4-quinazolinyl)-N-(4-phenoxyphenyl)-1-piperazinecarboxamide]	181 to 182
O=C(Nc1ccc(Oc2ccccc2)cc1)N1CCN(c2ncnc3cc([N+](=O)[O-])ccc23)CC1 [Compound 322, 4-(7-Nitro-4-quinazolinyl)-N-(4-phenoxyphenyl)-1-piperazinecarboxamide]	146 to 148
CC(=O)c1ccc(NC(=O)N2CCN(c3ncnc4c(Cl)cccc34)CC2)cc1 [Compound 325, N-(4-Acetylphenyl)-4-(8-chloro-4-quinazolinyl)-1-piperazinecarboxamide]	208 to 209
COc1cccc2c(N3CCN(C(=O)Nc4ccc(C(C)C)cc4)CC3)ncnc12 [Compound 326, N-(4-Isopropylphenyl)-4-(8-methoxy-4-quinazolinyl)-1-piperazinecarboxamide]	102 to 104
COc1cccc2c(N3CCN(C(=O)Nc4ccc(Oc5ccccc5)cc4)CC3)ncnc12 [Compound 327, 4-(8-Methoxy-4-quinazolinyl)-N-(4-phenoxyphenyl)-1-piperazinecarboxamide]	108 to 109
COc1cccc2c(N3CCN(C(=O)Nc4ccc(C(C)=O)cc4)CC3)ncnc12 [Compound 328, N-(4-Acetylphenyl)-4-(8-methoxy-4-quinazolinyl)-1-piperazinecarboxamide]	239 to 240
O=C(Nc1ccc(Oc2ccccc2)cc1)N1CCN(c2ncnc3cc(F)c(F)cc23)CC1 [Compound 329, 4-(6,7-Difluoro-4-quinazolinyl)-N-(4-phenoxyphenyl)-1-piperazinecarboxamide]	177 to 178
Fc1cc2ncnc(N3CCN(C(=S)NCc4ccccc4)CC3)c2cc1F [Compound 330, N-Benzyl-4-(6,7-difluoro-4-quinazolinyl)-1-piperazinethiocarboxamide]	119 to 120
